In patent US11339130B1 (Blade Therapeutics, Inc., priority 2016, dated 2022):
Where two headings read alike, the source gives them in different places.

Experiments:
[1] = system: Calpain activity in SH-SY5Y cells (SBDP-150); experiment: SH-SY5Y Spectrin western blot assay (SBDP-150 breakdown product, A23187-induced); type: cell-based; details: Homo sapiens, read-out: SH-SY5Y Spectrin IC50
[2] = target: T1, Human Calpain 2/NS1 (Homo sapiens, UniProt P17655); experiment: Calpain inhibition continuous fluorescence (FRET) assay, Human Calpain 2/NS1; type: biochemical; details: read-out: Human Calpain 2/NS1 IC50
T1 sequence (P17655 1-700): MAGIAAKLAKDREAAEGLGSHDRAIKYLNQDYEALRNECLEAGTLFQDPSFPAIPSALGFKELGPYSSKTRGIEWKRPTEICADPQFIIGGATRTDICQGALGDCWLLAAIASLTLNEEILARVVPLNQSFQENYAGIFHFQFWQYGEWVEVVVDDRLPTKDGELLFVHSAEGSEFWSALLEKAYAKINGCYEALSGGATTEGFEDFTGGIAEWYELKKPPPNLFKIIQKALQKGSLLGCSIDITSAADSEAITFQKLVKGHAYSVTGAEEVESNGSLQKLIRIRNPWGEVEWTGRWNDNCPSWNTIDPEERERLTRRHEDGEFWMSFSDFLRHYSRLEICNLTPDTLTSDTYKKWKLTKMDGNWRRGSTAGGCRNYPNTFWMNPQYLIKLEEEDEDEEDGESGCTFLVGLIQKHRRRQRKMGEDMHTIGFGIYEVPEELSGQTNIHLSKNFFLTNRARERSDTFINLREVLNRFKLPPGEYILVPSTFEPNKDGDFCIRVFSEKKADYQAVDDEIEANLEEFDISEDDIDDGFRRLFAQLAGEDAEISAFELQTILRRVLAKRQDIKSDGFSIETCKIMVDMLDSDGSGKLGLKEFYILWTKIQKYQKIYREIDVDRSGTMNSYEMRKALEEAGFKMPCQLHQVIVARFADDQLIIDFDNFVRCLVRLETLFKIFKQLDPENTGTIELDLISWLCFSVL
T1 sequence (P04632 1-268 partner): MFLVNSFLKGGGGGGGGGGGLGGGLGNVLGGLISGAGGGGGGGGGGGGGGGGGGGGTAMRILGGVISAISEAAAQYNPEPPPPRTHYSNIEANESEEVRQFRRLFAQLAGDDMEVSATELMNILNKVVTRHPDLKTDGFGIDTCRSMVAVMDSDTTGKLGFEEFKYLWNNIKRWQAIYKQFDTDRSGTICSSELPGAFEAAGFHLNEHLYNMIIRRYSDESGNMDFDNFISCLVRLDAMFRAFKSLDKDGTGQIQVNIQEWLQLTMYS
Outline: (§1)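 Buffer 50 mM Tris pH 7.5/100 mM NaCl/1 mM DTT; enzyme + cpd preinc 25C; start w/ FRET substrate + CaCl2; kinetic 490/520 nm, 10 min; slopes 1-5 min; 4-PL IC50.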

[3] = target: T2, Human Calpain 1/NS1 (Homo sapiens, UniProt P07384); experiment: Calpain inhibition continuous fluorescence (FRET) assay, Human Calpain 1/NS1; type: biochemical; details: read-out: Human Calpain 1/NS1 IC50
T2 sequence (P07384 1-714): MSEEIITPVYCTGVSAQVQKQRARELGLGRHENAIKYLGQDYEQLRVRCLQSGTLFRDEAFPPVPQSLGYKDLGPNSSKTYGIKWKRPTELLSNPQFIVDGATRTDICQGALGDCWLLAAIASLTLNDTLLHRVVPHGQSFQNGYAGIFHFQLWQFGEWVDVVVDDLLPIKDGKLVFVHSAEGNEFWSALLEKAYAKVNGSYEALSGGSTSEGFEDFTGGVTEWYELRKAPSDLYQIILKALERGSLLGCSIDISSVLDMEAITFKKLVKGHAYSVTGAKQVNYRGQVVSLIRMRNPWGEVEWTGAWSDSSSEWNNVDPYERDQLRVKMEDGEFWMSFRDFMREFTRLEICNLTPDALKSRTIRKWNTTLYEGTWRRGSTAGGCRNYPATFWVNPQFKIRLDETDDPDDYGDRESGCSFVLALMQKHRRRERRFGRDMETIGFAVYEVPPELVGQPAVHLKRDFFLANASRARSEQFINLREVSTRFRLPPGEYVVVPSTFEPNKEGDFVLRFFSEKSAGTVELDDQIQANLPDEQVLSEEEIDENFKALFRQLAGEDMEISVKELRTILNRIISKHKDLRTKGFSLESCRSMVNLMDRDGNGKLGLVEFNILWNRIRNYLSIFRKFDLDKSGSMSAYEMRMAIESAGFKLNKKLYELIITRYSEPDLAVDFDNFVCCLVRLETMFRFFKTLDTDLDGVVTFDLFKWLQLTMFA
T2 sequence (P04632 1-268 partner): T1 sequence (P04632 1-268 partner)
Outline: as §1

[4] = target: T3, Human Calpain 9/NS1 (Homo sapiens, UniProt O14815); experiment: Calpain inhibition continuous fluorescence (FRET) assay, Human Calpain 9/NS1; type: biochemical; details: read-out: Human Calpain 9/NS1 IC50
T3 sequence (O14815 1-690): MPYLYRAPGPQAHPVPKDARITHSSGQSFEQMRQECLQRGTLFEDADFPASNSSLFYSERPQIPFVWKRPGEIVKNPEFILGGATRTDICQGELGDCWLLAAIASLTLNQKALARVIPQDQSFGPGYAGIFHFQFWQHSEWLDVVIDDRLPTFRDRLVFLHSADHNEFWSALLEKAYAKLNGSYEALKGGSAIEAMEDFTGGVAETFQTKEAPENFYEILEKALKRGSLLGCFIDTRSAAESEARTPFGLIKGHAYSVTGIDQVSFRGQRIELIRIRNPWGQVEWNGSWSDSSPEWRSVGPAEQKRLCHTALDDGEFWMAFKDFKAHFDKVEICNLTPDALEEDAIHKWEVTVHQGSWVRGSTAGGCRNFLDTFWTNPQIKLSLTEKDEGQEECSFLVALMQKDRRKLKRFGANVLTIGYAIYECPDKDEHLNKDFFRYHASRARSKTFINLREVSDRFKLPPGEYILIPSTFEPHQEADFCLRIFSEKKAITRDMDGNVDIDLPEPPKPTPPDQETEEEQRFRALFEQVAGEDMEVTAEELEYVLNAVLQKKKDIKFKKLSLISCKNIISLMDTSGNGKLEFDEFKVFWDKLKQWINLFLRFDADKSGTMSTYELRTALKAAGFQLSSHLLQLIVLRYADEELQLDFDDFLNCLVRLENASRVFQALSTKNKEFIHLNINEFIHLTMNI
T3 sequence (P04632 1-268 partner): T1 sequence (P04632 1-268 partner)
Outline: as §1

[5] = system: Calpain activity in SH-SY5Y cells; experiment: SH-SY5Y + AMC fluorescence assay (Suc-LLVY-AMC substrate); type: cell-based; details: read-out: SH-SY5Y + AMC IC50
[6] = SH-SY5Y cells, A23187-induced SBDP-150, western blot

| IC50 [1, 6] | IC50 [2] | IC50 [3] | IC50 [4] | IC50 [5] | SMILES | IC50 ([1]; SH-SY5Y) |
| --- | --- | --- | --- | --- | --- | --- |
| 10 to 25 µM | < 3 µM | < 3 µM | < 3 µM | < 10 µM | Cc1c(F)cccc1-c1oncc1C(=O)NC(Cc1ccccc1)C(=O)C(N)=O (stereo not drawn) [Compound 594, N-(4-amino-3,4-dioxo-1-phenylbutan-2-yl)-5-(3-fluoro-2-methylphenyl)isoxazole-4-carboxamide] |  |
| 10 to 25 µM | < 3 µM | < 3 µM | < 3 µM | > 25 µM | COc1cccc(-c2oncc2C(=O)NC(Cc2ccccc2)C(=O)C(N)=O)c1F (stereo not drawn) [Compound 595, N-(4-amino-3,4-dioxo-1-phenylbutan-2-yl)-5-(2-fluoro-3-methoxyphenyl)isoxazole-4-carboxamide] |  |
| 10 to 25 µM | < 3 µM | < 3 µM | < 3 µM | < 10 µM | NC(=O)C(=O)C(Cc1ccccc1)NC(=O)c1cn(C(F)F)nc1-c1ccnc2ccccc12 (stereo not drawn) [Compound 596, N-(4-amino-3,4-dioxo-1-phenylbutan-2-yl)-1-(difluoromethyl)-3-(quinolin-4-yl)-1H-pyrazole-4-carboxamide] |  |
| 10 to 25 µM | < 3 µM | < 3 µM | < 3 µM | 10 to 25 µM | Cn1cc(C(=O)NC(Cc2ccccc2)C(=O)C(N)=O)c(-c2cccc3ncccc23)n1 (stereo not drawn) [Compound 597, N-(4-amino-3,4-dioxo-1-phenylbutan-2-yl)-1-methyl-3-(quinolin-5-yl)-1H-pyrazole-4-carboxamide] |  |
| < 10 µM | < 3 µM | < 3 µM | < 3 µM | < 10 µM | NC(=O)C(=O)C(Cc1ccccc1)NC(=O)c1cn(C(F)F)nc1-c1cccc2cnccc12 (stereo not drawn) [Compound 598, N-(4-amino-3,4-dioxo-1-phenylbutan-2-yl)-1-(difluoromethyl)-3-(isoquinolin-5-yl)-1H-pyrazole-4-carboxamide] |  |
| 10 to 25 µM | < 3 µM | < 3 µM | < 3 µM | > 25 µM | Cc1cncc(-c2oncc2C(=O)NC(Cc2ccccc2)C(=O)C(N)=O)c1 (stereo not drawn) [Compound 600, N-(4-amino-3,4-dioxo-1-phenylbutan-2-yl)-5-(5-methylpyridin-3-yl)isoxazole-4-carboxamide] |  |
| > 25 µM | < 3 µM | 3 to 10 µM | 3 to 10 µM | > 25 µM | Cn1cc(C(=O)NC(Cc2ccccc2)C(=O)C(N)=O)c(N2CCN(C(=O)OCc3ccccc3)CC2)n1 (stereo not drawn) [Compound 601, Benzyl 4-(4-((4-amino-3,4-dioxo-1-phenylbutan-2-yl)carbamoyl)-1-methyl-1H-pyrazol-3-yl)piperazine-1-carboxylate] |  |
| 10 to 25 µM | < 3 µM | < 3 µM | < 3 µM | > 25 µM | Cn1cc(C(=O)NC(Cc2ccccc2)C(=O)C(N)=O)c(-c2cc3ccccc3cn2)n1 (stereo not drawn) [Compound 602, N-(4-amino-3,4-dioxo-1-phenylbutan-2-yl)-3-(isoquinolin-3-yl)-1-methyl-1H-pyrazole-4-carboxamide] |  |

Further lines, the compound ahead of its results:

| SMILES | IC50 [1, 6] | IC50 [2] | IC50 [3] | IC50 [4] | IC50 [5] | IC50 ([1]; SH-SY5Y) |
| --- | --- | --- | --- | --- | --- | --- |
| NC(=O)C(=O)C(Cc1ccccc1)NC(=O)c1cn(C(F)F)nc1-c1cncc(F)c1 (stereo not drawn) [Compound 586, N-(4-amino-3,4-dioxo-1-phenylbutan-2-yl)-1-(difluoromethyl)-3-(5-fluoropyridin-3-yl)-1H-pyrazole-4-carboxamide] | 10 to 25 µM | < 3 µM | < 3 µM | < 3 µM | 10 to 25 µM |  |
| Cn1cc(C(=O)NC(Cc2ccccc2)C(=O)C(N)=O)c(-c2ccc3ccccc3n2)n1 (stereo not drawn) [Compound 587, N-(4-amino-3,4-dioxo-1-phenylbutan-2-yl)-1-methyl-3-(quinolin-2-yl)-1H-pyrazole-4-carboxamide] | > 25 µM | < 3 µM | < 3 µM | 3 to 10 µM | > 25 µM |  |
| NC(=O)C(=O)C(Cc1ccccc1)NC(=O)c1cn(C(F)F)nc1-c1ccc2ccccc2n1 (stereo not drawn) [Compound 588, N-(4-amino-3,4-dioxo-1-phenylbutan-2-yl)-1-(difluoromethyl)-3-(quinolin-2-yl)-1H-pyrazole-4-carboxamide] | 10 to 25 µM | < 3 µM | < 3 µM | < 3 µM | > 25 µM |  |
| Cn1cc(C(=O)NC(Cc2ccccc2)C(=O)C(N)=O)c(-c2cncc3ccccc23)n1 (stereo not drawn) [Compound 591, N-(4-amino-3,4-dioxo-1-phenylbutan-2-yl)-3-(isoquinolin-4-yl)-1-methyl-1 h-pyrazole-4-carboxamide] | > 25 µM | < 3 µM | < 3 µM | < 3 µM | > 25 µM |  |
| Cc1nc(-c2ccccc2F)c(C(=O)N[C@H](Cc2ccccc2)C(=O)C(N)=O)o1 [Compound 592, (R)—N-(4-amino-3,4-dioxo-1-phenylbutan-2-yl)-4-(2-fluorophenyl)-2-methyloxazole-5-carboxamide] | 10 to 25 µM | < 3 µM | < 3 µM | < 3 µM | < 10 µM |  |
| Cn1cc(C(=O)NC(Cc2ccccc2)C(=O)C(N)=O)c(-c2ccc3ncccc3c2)n1 (stereo not drawn) [Compound 593, N-(4-amino-3,4-dioxo-1-phenylbutan-2-yl)-1-methyl-3-(quinolin-6-yl)-1H-pyrazole-4-carboxamide] | > 25 µM | < 3 µM | < 3 µM | < 3 µM | > 25 µM |  |
| Cn1cc(C(=O)NC(Cc2ccccc2)C(=O)C(N)=O)c(N2CCN(C(=O)OC(C)(C)C)CC2)n1 (stereo not drawn) [Compound 603, Tert-Butyl 4-(4-((4-amino-3,4-dioxo-1-phenylbutan-2-yl)carbamoyl)-1-methyl-1H-pyrazol-3-yl)piperazine-1-carboxylate] |  | 3 to 10 µM | 3 to 10 µM | 3 to 10 µM | > 25 µM | > 25 µM |
